Experimental data published in ChEMBL document CHEMBL1121776, “Folate antagonists. 18. Synthesis and antimalarial effects of N6-(arylmethyl)-N6-methyl-2,4,6-pteridinetriamines and related N6,N6-disubstituted 2,4,6-pteridinetriamines” (1981).
In brackets after ≈: the same amount, converted by molar mass.

Legend:
Format in all cases: functional
[1] = system: Mus musculus; experiment: Parenteral antimalarial effect against Plasmodium berghei in mice (Mus musculus) at a dose of 80 mg/kg subcutaneously; conditions: route subcutaneous
[2] = system: Mus musculus; experiment: Parenteral antimalarial effect against Plasmodium berghei in mice (Mus musculus) at a dose of 40 mg/kg subcutaneously; conditions: route subcutaneous
[3] = system: Mus musculus; experiment: Parenteral antimalarial effect against Plasmodium berghei in mice (Mus musculus) at a dose of 160 subcutaneously mg/kg
[4] = system: Mus musculus; experiment: Parenteral antimalarial effect against Plasmodium berghei in mice (Mus musculus) at a dose of 640 subcutaneously mg/kg
[5] = system: Mus musculus; experiment: Parenteral antimalarial effect against Plasmodium berghei in mice (Mus musculus) at a dose of 320 subcutaneous mg/kg
[6] = system: Mus musculus; experiment: Parenteral antimalarial effect against Plasmodium berghei in mice (Mus musculus) at a dose of 20sc mg/kg
[7] = system: Mus musculus; experiment: Parenteral antimalarial effect against Plasmodium berghei in mice (Mus musculus) at a dose of 320 subcutaneously mg/kg; Number of mice (Mus musculus) surviving at 60 days post infection and cured 1/5
[8] = system: Mus musculus; experiment: Parenteral antimalarial effect against Plasmodium berghei in mice (Mus musculus) at a dose of 640 subcutaneously mg/kg; Number of mice (Mus musculus) surviving at 60 days post infection and cured 4/10
[9] = system: Escherichia coli; experiment: In vitro antibacterial effect against Escherichia coli Vogel by using gradient plate test
[10] = system: Pseudomonas aeruginosa; experiment: In vitro antibacterial effect against Pseudomonas aeruginosa 28 by using gradient plate test
[11] = system: Mycobacterium tuberculosis; experiment: In vitro antibacterial effect against Mycobacterium tuberculosis H37Rv by using gradient plate test
[12] = system: Staphylococcus aureus; experiment: In vitro antibacterial effect against Staphylococcus aureus UC-76 by using gradient plate test
[13] = system: Mus musculus; experiment: Parenteral antimalarial effect against Plasmodium berghei in mice (Mus musculus) at a dose of 160 mg/kg subcutaneously; Number of mice (Mus musculus) surviving at 60 days post infection and cured 10/10; conditions: route subcutaneous
[14] = system: Mus musculus; experiment: Parenteral antimalarial effect against Plasmodium berghei in mice (Mus musculus) at a dose of 320 subcutaneous mg/kg; Number of mice (Mus musculus) surviving at 60 days post infection and cured 5/5
[15] = system: Mus musculus; experiment: Parenteral antimalarial effect against Plasmodium berghei in mice (Mus musculus) at a dose of 20 mg/kg subcutaneously; Number of mice (Mus musculus) surviving at 60 days post infection and cured 2/5; conditions: route subcutaneous
[16] = system: Mus musculus; experiment: Parenteral antimalarial effect against Plasmodium berghei in mice (Mus musculus) at a dose of 640 mg/kg subcutaneously; Number of mice (Mus musculus) surviving at 60 days post infection and cured 10/10; conditions: route subcutaneous
[17] = system: Mus musculus; experiment: Parenteral antimalarial effect against Plasmodium berghei in mice (Mus musculus) at a dose of 10sc mg/kg
[18] = system: Shigella sonnei; experiment: In vitro antibacterial effect against Shigella sonnei C-10 by using gradient plate test
[19] = system: Staphylococcus aureus; experiment: In vitro antibacterial effect against Staphylococcus aureus S18713 by using gradient plate test
[20] = system: Enterococcus faecalis; experiment: In vitro antibacterial effect against Streptococcus faecalis MGH-2
[21] = system: Mus musculus; experiment: Parenteral antimalarial effect against Plasmodium berghei in mice (Mus musculus) at a dose of 160 mg/kg subcutaneously; Number of mice (Mus musculus) surviving at 60 days post infection and cured 5/5; conditions: route subcutaneous
[22] = system: Escherichia coli; experiment: In vitro antibacterial effect against E. c. Vogel by using gradient plate test
[23] = system: Pseudomonas aeruginosa; experiment: In vitro antibacterial effect against P.a 28 by using gradient plate test
[24] = system: Staphylococcus aureus; experiment: In vitro antibacterial effect against S. a. UC-76 by using gradient plate test
[25] = system: Staphylococcus aureus; experiment: In vitro antibacterial effect against S. a. S18713 by using gradient plate test
[26] = system: Mycobacterium tuberculosis; experiment: In vitro antibacterial effect against M. t. H37Rv by using gradient plate test
[27] = system: Shigella sonnei; experiment: In vitro antibacterial effect against S. s C-10 by using gradient plate test
[28] = system: Enterococcus faecalis; experiment: In vitro antibacterial effect against S. f MGH-2
[29] = system: Mus musculus; experiment: Parenteral antimalarial effect against Plasmodium berghei in mice (Mus musculus) at a dose of 80 mg/kg subcutaneously; Number of mice (Mus musculus) surviving at 60 days post infection and cured 2/5; conditions: route subcutaneous
[30] = system: Mus musculus; experiment: Parenteral antimalarial effect against Plasmodium berghei in mice (Mus musculus) at a dose of 160 mg/kg subcutaneously; Number of mice (Mus musculus) surviving at 60 days post infection and cured 3/5; conditions: route subcutaneous
[31] = system: Mus musculus; experiment: Parenteral antimalarial effect against Plasmodium berghei in mice (Mus musculus) at a dose of 320 mg/kg subcutaneously; Number of mice (Mus musculus) surviving at 60 days post infection and cured 3/5; conditions: route subcutaneous
[32] = system: Mus musculus; experiment: Parenteral antimalarial effect against Plasmodium berghei in mice (Mus musculus) at a dose of 40sc mg/kg; Number of mice (Mus musculus) surviving at 60 days post infection and cured 6/10
[33] = system: Mus musculus; experiment: Parenteral antimalarial effect against Plasmodium berghei in mice (Mus musculus) at a dose of 160 mg/kg subcutaneously; Number of mice (Mus musculus) surviving at 60 days post infection and cured 8/10; conditions: route subcutaneous
[34] = system: Mus musculus; experiment: Parenteral antimalarial effect against Plasmodium berghei in mice (Mus musculus) at a dose of 40sc mg/kg; Number of mice (Mus musculus) surviving at 60 days post infection and cured 3/5
[35] = system: Mus musculus; experiment: Parenteral antimalarial effect against Plasmodium berghei in mice (Mus musculus) at a dose of 80 subcutaneously mg/kg; Number of mice (Mus musculus) surviving at 60 days post infection and cured 7/10
[36] = system: Mus musculus; experiment: Parenteral antimalarial effect against Plasmodium berghei in mice (Mus musculus) at a dose of 20 mg/kg subcutaneously; Number of mice (Mus musculus) surviving at 60 days post infection and cured 4/10; conditions: route subcutaneous
[37] = system: Mus musculus; experiment: Parenteral antimalarial effect against Plasmodium berghei in mice (Mus musculus) at a dose of 320 mg/kg subcutaneously; Number of mice (Mus musculus) surviving at 60 days post infection and cured 3; No of toxic deaths 2; conditions: route subcutaneous
[38] = system: Mus musculus; experiment: Parenteral antimalarial effect against Plasmodium berghei in mice (Mus musculus) at a dose of 160 mg/kg subcutaneously; Number of mice (Mus musculus) surviving at 60 days post infection and cured 6/10; conditions: route subcutaneous

Structure (SMILES)	MST [1]	MST [2]	MST [3]	MST [5]	MST [6]	MIC [9]	MIC [10]	MIC [11]	MIC [12]	MST [17]	MIC [18]	MIC [19]	MIC [20]	other results
CC1(C)N=C(N)N=C(N)N1c1ccc(Cl)cc1.Cl [CHLORCYCLOGUANIL HYDROCHLORIDE]	2 days	1 days	5 days	3 days	7.9 days									MST [4]: 5 days
Nc1nc(N)c2nc(N3CCCCC3)cnc2n1	0.3 days			0.9 days	0.3 days									
CN(Cc1cccc(Br)c1)c1cnc2nc(N)nc(N)c2n1	10.7 days	10.2 days	12.8 days		6.9 days									MST [7]: 1 days; MST [8]: 4 days
CN(Cc1ccc2ccccc2c1)c1cnc2nc(N)nc(N)c2n1						> 25 µg/mL	> 25 µg/mL	> 25 µg/mL	< 0.25 µg/mL	5.9 days	> 25 µg/mL	< 0.25 µg/mL	< 0.25 µg/mL	MST [13]: 10 days; MST [14]: 5 days; MST [15]: 2 days; MST [16]: 10 days
CN(Cc1ccc2c(c1)Cc1ccccc1-2)c1cnc2nc(N)nc(N)c2n1	2 days	8.1 days	5 days	5 days	6.3 days	> 25 µg/mL	> 25 µg/mL	5 µg/mL (≈ 13.5 µM)	< 0.25 µg/mL	3.5 days	> 25 µg/mL	< 0.25 µg/mL	< 0.25 µg/mL	
COc1ccc(CN(C)c2cnc3nc(N)nc(N)c3n2)c2ccccc12	5 days	5 days	5 days	5 days	6.5 days	> 25 µg/mL	> 25 µg/mL	2.5 µg/mL (≈ 6.92 µM)	< 0.25 µg/mL		> 25 µg/mL	< 0.25 µg/mL	< 0.25 µg/mL	MST [4]: 5 days
CN(Cc1cccc(C(F)(F)F)c1)c1cnc2nc(N)nc(N)c2n1		15.4 days			12.2 days	> 25 µg/mL	> 25 µg/mL	10 µg/mL (≈ 28.6 µM)	< 0.25 µg/mL	8.8 days	> 25 µg/mL	< 0.25 µg/mL	< 0.25 µg/mL	MST [21]: 5 days
COc1cc(Cc2cnc(N)nc2N)cc(OC)c1OC [TRIMETHOPRIM]														MIC [22]: > 25 µg/mL; MIC [23]: > 25 µg/mL; MIC [24]: < 0.25 µg/mL; MIC [25]: < 0.25 µg/mL; MIC [26]: > 25 µg/mL; MIC [27]: > 25 µg/mL; MIC [28]: < 0.25 µg/mL
Nc1nc(N)c2nc(N3CCCC3c3ccc(Cl)cc3)cnc2n1 (stereo not drawn)		12.1 days			10.1 days					7.9 days				MST [29]: 2 days; MST [30]: 3 days; MST [31]: 3 days
COc1cc(CN(C)c2cnc3nc(N)nc(N)c3n2)cc(OC)c1OC					5.5 days	> 25 µg/mL	> 25 µg/mL	> 25 µg/mL	< 0.25 µg/mL		> 25 µg/mL	< 0.25 µg/mL	< 0.25 µg/mL	MST [32]: 6 days; MST [33]: 8 days; MST [16]: 10 days
CN(Cc1ccc(Cl)cc1)c1cnc2nc(N)nc(N)c2n1										4.3 days				MST [34]: 3 days; MST [21]: 5 days; MST [35]: 7 days; MST [36]: 4 days
CN(Cc1ccccc1Cl)c1cnc2nc(N)nc(N)c2n1					9.5 days		> 25 µg/mL	5 µg/mL (≈ 15.8 µM)	< 0.25 µg/mL		> 25 µg/mL	< 0.25 µg/mL	< 0.25 µg/mL	MIC [22]: > 25 µg/mL; MST [37]: 3 days; MST [38]: 6 days
